In publication PMC10648927, “Examining the activity of cefepime-taniborbactam against Burkholderia cepacia complex and Burkholderia gladioli isolated from cystic fibrosis patients in the United States” (Antimicrobial Agents and Chemotherapy, 2023):
In brackets after ≈: the same amount, converted by molar mass.

Columns and labels:
Parameters in all cases: agar dilution MIC, growth inhibition of clinical Burkholderia isolates
[1] = tested on: T1, B. cenocepacia AU11339; test: microbe, parasite or virus in culture; settings: Burkholderia cenocepacia, AU11339
T1 construct: AU11339
Method in brief: (§1)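 MICs by agar dilution against Bcc and B. gladioli clinical isolates, interpreted with CLSI breakpoints where available; K. pneumoniae ATCC 700603 (SHV-18) and ATCC BAA-1705 (KPC) served as quality controls.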

[2] = tested on: T2, B. cepacia AU16396; test: microbe, parasite or virus in culture; settings: Burkholderia cepacia, AU16396
T2 construct: AU16396
Method in brief: as §1

[3] = tested on: T3, B. cepacia AU19265; test: microbe, parasite or virus in culture; settings: Burkholderia cepacia, AU19265
T3 construct: AU19265
Method in brief: as §1

[4] = tested on: T4, B. cepacia AU22213; test: microbe, parasite or virus in culture; settings: Burkholderia cepacia, AU22213
T4 construct: AU22213
Method in brief: as §1

[5] = tested on: T5, B. contaminans AU20979; test: organism not typed
T5 construct: AU20979
Method in brief: as §1

[6] = tested on: T6, B. gladioli AU0032; test: organism not typed
T6 construct: AU0032
Method in brief: as §1

[7] = tested on: T7, B. gladioli AU28659; test: organism not typed
T7 construct: AU28659
Method in brief: as §1

[8] = tested on: T8, B. multivorans AU10398; test: microbe, parasite or virus in culture; settings: Burkholderia multivorans, AU10398
T8 construct: AU10398
Method in brief: as §1

[9] = tested on: T9, B. multivorans AU10897; test: microbe, parasite or virus in culture; settings: Burkholderia multivorans, AU10897
T9 construct: AU10897
Method in brief: as §1

[10] = tested on: T10, B. multivorans AU11358; test: microbe, parasite or virus in culture; settings: Burkholderia multivorans, AU11358
T10 construct: AU11358
Method in brief: as §1

[11] = tested on: T11, B. multivorans AU17135; test: microbe, parasite or virus in culture; settings: Burkholderia multivorans, AU17135
T11 construct: AU17135
Method in brief: as §1

[12] = tested on: T12, B. multivorans AU18096; test: microbe, parasite or virus in culture; settings: Burkholderia multivorans, AU18096
T12 construct: AU18096
Method in brief: as §1

[13] = tested on: T13, B. multivorans AU23919; test: microbe, parasite or virus in culture; settings: Burkholderia multivorans, AU23919
T13 construct: AU23919
Method in brief: as §1

[14] = tested on: T14, B. multivorans AU25057; test: microbe, parasite or virus in culture; settings: Burkholderia multivorans, AU25057
T14 construct: AU25057
Method in brief: as §1

[15] = tested on: T15, B. multivorans AU25626; test: microbe, parasite or virus in culture; settings: Burkholderia multivorans, AU25626
T15 construct: AU25626
Method in brief: as §1

[16] = tested on: T16, B. multivorans AU27706; test: microbe, parasite or virus in culture; settings: Burkholderia multivorans, AU27706
T16 construct: AU27706
Method in brief: as §1

[17] = tested on: T17, B. pyrrocinia AU1114; test: microbe, parasite or virus in culture; settings: Burkholderia pyrrocinia, AU1114
T17 construct: AU1114
Method in brief: as §1

[18] = tested on: T18, B. seminalis AU14842; test: organism not typed
T18 construct: AU14842
Method in brief: as §1

[19] = tested on: T19, B. ubonensis AU7314; test: organism not typed
T19 construct: AU7314
Method in brief: as §1

[20] = tested on: T20, B. vietnamiensis AU10214; test: microbe, parasite or virus in culture; settings: Burkholderia vietnamiensis, AU10214
T20 construct: AU10214
Method in brief: as §1

[21] = tested on: T21, B. vietnamiensis AU21549; test: microbe, parasite or virus in culture; settings: Burkholderia vietnamiensis, AU21549
T21 construct: AU21549
Method in brief: as §1

[22] = tested on: T22, Burkholderia cepacia complex Bcc Indeterminate AU12560; test: microbe, parasite or virus in culture; settings: Burkholderia cepacia
T22 construct: AU12560
Method in brief: as §1

[23] = tested on: T23, Burkholderia cepacia complex Bcc Indeterminate AU19076; test: microbe, parasite or virus in culture; settings: Burkholderia cepacia
T23 construct: AU19076
Method in brief: as §1

Structure (SMILES)	MIC [1] [µg/mL]	MIC [2] [µg/mL]	MIC [3] [µg/mL]	MIC [4] [µg/mL]	MIC [5] [µg/mL]	MIC [6] [µg/mL]	MIC [7] [µg/mL]	MIC [8] [µg/mL]	MIC [9] [µg/mL]	MIC [10] [µg/mL]	MIC [11] [µg/mL]	MIC [12] [µg/mL]	MIC [13] [µg/mL]	MIC [14] [µg/mL]	MIC [15] [µg/mL]	MIC [16] [µg/mL]	MIC [17] [µg/mL]	MIC [18] [µg/mL]	MIC [19] [µg/mL]	MIC [20] [µg/mL]	also measured
CO/N=C(\C(=O)N[C@@H]1C(=O)N2C(C(=O)[O-])=C(C[N+]3(C)CCCC3)CS[C@H]12)c1csc(N)n1 [cefepime]	16 (≈ 33.3 µM)	32 (≈ 66.6 µM)	32 (≈ 66.6 µM)	32 (≈ 66.6 µM)	> 32	> 32	32 (≈ 66.6 µM)	> 32	32 (≈ 66.6 µM)	8 (≈ 16.6 µM)	4 (≈ 8.32 µM)	2 (≈ 4.16 µM)	32 (≈ 66.6 µM)	8 (≈ 16.6 µM)	8 (≈ 16.6 µM)	1 (≈ 2.08 µM)	8 (≈ 16.6 µM)	16 (≈ 33.3 µM)	> 32	8 (≈ 16.6 µM)	MIC [21]: 2 µg/mL (≈ 4.16 µM); MIC [22]: 32 µg/mL (≈ 66.6 µM); MIC [23]: 16 µg/mL (≈ 33.3 µM)
C[C@@H](O)[C@H]1C(=O)N2C(C(=O)O)=C(S[C@@H]3CN[C@H](C(=O)N(C)C)C3)[C@H](C)[C@H]12 [meropenem]	2 (≈ 5.22 µM)	8 (≈ 20.9 µM)	4 (≈ 10.4 µM)	4 (≈ 10.4 µM)	8 (≈ 20.9 µM)	2 (≈ 5.22 µM)	2 (≈ 5.22 µM)	8 (≈ 20.9 µM)	8 (≈ 20.9 µM)	8 (≈ 20.9 µM)	4 (≈ 10.4 µM)	1 (≈ 2.61 µM)	4 (≈ 10.4 µM)	4 (≈ 10.4 µM)	> 32	0.5 (≈ 1.3 µM)	4 (≈ 10.4 µM)	4 (≈ 10.4 µM)	32 (≈ 83.4 µM)	0.5 (≈ 1.3 µM)	MIC [21]: 0.5 µg/mL (≈ 1.3 µM); MIC [22]: 4 µg/mL (≈ 10.4 µM); MIC [23]: 4 µg/mL (≈ 10.4 µM)
C[C@H]1COc2c(N3CCN(C)CC3)c(F)cc3c(=O)c(C(=O)O)cn1c23 [levofloxacin]	2 (≈ 5.53 µM)	> 32	4 (≈ 11.1 µM)	2 (≈ 5.53 µM)	32 (≈ 88.6 µM)	8 (≈ 22.1 µM)	2 (≈ 5.53 µM)	16 (≈ 44.3 µM)	16 (≈ 44.3 µM)	2 (≈ 5.53 µM)	2 (≈ 5.53 µM)	4 (≈ 11.1 µM)	2 (≈ 5.53 µM)	8 (≈ 22.1 µM)	4 (≈ 11.1 µM)	1 (≈ 2.77 µM)	> 32	4 (≈ 11.1 µM)	4 (≈ 11.1 µM)	8 (≈ 22.1 µM)	MIC [21]: 4 µg/mL (≈ 11.1 µM); MIC [22]: 8 µg/mL (≈ 22.1 µM); MIC [23]: 4 µg/mL (≈ 11.1 µM)
